From patent US7531312B2, “Simplified biological evaluation method of natural and artificial chemicals by using DNA injury index and apparatus therefor” (TAS Project Co., Ltd., priority 2000, dated 2009)
“Also recorded” adds a separate entry of the source.

Tested on: 2′-deoxyguanosine (dG)
Experiment: 8OHdG produced from added dG, standing at room temperature or UV irradiation (Examples 1-7);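 further: Cell-free test: dG in test solution, held at room temperature or exposed to 254 nm UV, then 8OHdG quantified by HPLC with electrochemical detection, compared against dG in ultrapure water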
Settings: for evaluation in words: oxidation induction or antioxidant ability toward dG: conclusions of Examples 2-7; for 8OHdG concentration, UV irradiation 60 minutes: ultrapure water 0.392; for 8OHdG concentration, UV irradiation 90 minutes: ultrapure water 0.901; for 8OHdG concentration, UV irradiation 120 minutes: ultrapure water 1.183
[1] = 1 μg/ml, Table 5, ultrapure water 0.219
[2] = 1 μg/ml, Table 5, ultrapure water 0.422
[3] = 10 μg/ml, Table 5, ultrapure water 0.219
[4] = 10 μg/ml, Table 5, ultrapure water 0.422
[5] = 100 μg/ml, Table 5, ultrapure water 0.219
[6] = 100 μg/ml, Table 5, ultrapure water 0.422
[7] = 1 mg/ml, Table 5, ultrapure water 0.219
[8] = 1 mg/ml, Table 5, ultrapure water 0.422

Description: Separately, the amount of 8OHdG after an ultrapure water solution of dG is left to stand under the same conditions as above for a predetermined time is measured (this value is defined as B). If A is greater than B, the test substance is evaluated to have oxidation induction ability and conversely if A is smaller than B, the test substance is evaluated to have antioxidant ability. In either case, it is judged that the greater the difference is, the greater degree of oxidation induction ability or antioxidant capability the test substance has.
Then, 20 μl of 200 μg/ml dG (dissolved in ultrapure water) was added to each well and one of the plates was left to stand as it was at room temperature for 90 minutes and the other plate was irradiated with UV light (254 nm, 860 μW/cm^2) for 90 minutes in a UV light irradiation box. […] Subsequently, nucleosides in the both were quantified by use of the UV light absorption analyzer connected to the HPLC and the electrochemical detector.
Solutions of predetermined concentrations of vitamin C (VC), vitamin E (VE), catechin (Cate) and tannic acid (Tan) were prepared and 180 μl portions were injected into each well of two 99-well plastic plates. Then, 20 μl of 200 μg/ml dG (dissolved in ultrapure water) was added to each well and one of the plates was left to stand as it was at room temperature for 90 minutes and the other plate was irradiated with UV light (254 nm, 860 μW/cm^2) for 90 minutes in a UV light irradiation box.
Then, 20 μl of 200 μg/ml dG (dissolved in ultrapure water) was added to each well and one of the plates was left to stand as it was at room temperature for 90 minutes and another plate was left to stand similarly at room temperature for 24 hours. The remaining three plates were irradiated with UV light (254 nm, 860 μW/cm^2) for 60 minutes, 90 minutes and 120 minutes, respectively, in a UV light irradiation box.
Solutions of predetermined concentrations of glucose (Glu), raffinose (Raffi) and sucrose (Suc) were prepared and 180 μl portions thereof were injected into each well of four 99-well plastic plates. Then, 20 μl of 200 μg/ml dG (dissolved in ultrapure water) was added to each well and one of the plates was left to stand as it was at room temperature for 90 minutes. The remaining three plates were irradiated with UV light (254 nm, 860 μW/cm^2) for 60 minutes, 90 minutes and 120 minutes, respectively, in a UV light irradiation box.
Then, 20 μl of 200 μg/ml dG (dissolved in ultrapure water) was added to each well and one of the plates was left to stand as it was at room temperature for 90 minutes and the other plate was irradiated with UV light (254 nm, 860 μW/cm^2) for 90 minutes in a UV light irradiation box.
Solutions of various concentrations of uric acid (dissolving fluid: distilled water+0.025% FBS) were prepared and 180 μl portions thereof were injected into each well of two 99-well plastic plates. Then, 20 μl of 200 μg/ml dG (dissolved in ultrapure water) was added to each well and one of the plates was left to stand as it was at room temperature for 90 minutes and the other plate was irradiated with UV light (254 nm, 860 μW/cm^2) for 90 minutes in a UV light irradiation box.

Row | SMILES | 8OHdG concentration, 90 Minutes' standing [1] | 8OHdG concentration, 90 Minutes' UV irradiation [2] | 8OHdG concentration, 90 Minutes' standing [3] | 8OHdG concentration, 90 Minutes' UV irradiation [4] | 8OHdG concentration, 90 Minutes' standing [5] | 8OHdG concentration, 90 Minutes' UV irradiation [6] | 8OHdG concentration, 90 Minutes' standing [7] | 8OHdG concentration, 90 Minutes' UV irradiation [8] | evaluation in words: oxidation induction or antioxidant ability toward dG | also measured
1 | N=C(N)NCCC[C@H](N)C(=O)O [Arg, 1-arginine] | 0.186 ng/mL | 0.323 ng/mL | 0.153 ng/mL | 0.253 ng/mL | 0.150 ng/mL | 0.305 ng/mL | 0.173 ng/mL | 0.299 ng/mL | exhibited antioxidant ability | 
2 | NC(=O)NCCC[C@H](N)C(=O)O [Cit, 1-citrulline] | 0.184 ng/mL | 0.332 ng/mL | 0.179 ng/mL | 0.305 ng/mL | 0.120 ng/mL | 0.225 ng/mL | 0.156 ng/mL | 0.125 ng/mL | exhibited antioxidant ability | 
3 | Oc1ccc(/C=C/c2cc(O)cc(O)c2)cc1 [RVT, Resveratol] |  |  |  |  |  |  |  |  |  | 8OHdG concentration, 90 Minutes' UV irradiation (0.0005 ppm, Table 1, ultrapure water 0.529): 1.026 ng/mL; 8OHdG concentration, 90 Minutes' UV irradiation (0.005 ppm, Table 1, ultrapure water 0.529): 0.690 ng/mL; 8OHdG concentration, 90 Minutes' UV irradiation (0.05 ppm, Table 1, ultrapure water 0.529): 0.571 ng/mL; 8OHdG concentration, 90 Minutes' UV irradiation (0.5 ppm, Table 1, ultrapure water 0.529): 1.378 ng/mL; 8OHdG concentration, 90 Minutes' UV irradiation (5 ppm, Table 1, ultrapure water 0.529): 5.582 ng/mL; concentration at which oxidation injury activity due to UV light is elevated (harmfulness increased) (Example 1, 90 minutes UV): ≥ 0.5 ppm
4 | NCCCNCCCCNCCCN [Spe, spermine] | 0.140 ng/mL | 0.297 ng/mL | 0.150 ng/mL | 0.328 ng/mL | 0.154 ng/mL | 0.351 ng/mL | 0.179 ng/mL | 0.112 ng/mL | exhibited antioxidant ability | 
5 | OC[C@H]1O[C@@](CO)(O[C@H]2O[C@H](CO)[C@@H](O)[C@H](O)[C@H]2O)[C@@H](O)[C@@H]1O [Suc, sucrose] |  |  |  |  |  |  |  |  | Glu>Raffi≈Suc; also recorded: antioxidant ability as potent as that of Raffi | 8OHdG concentration, 90 Minutes' standing (0.1 μg/ml, Table 4, ultrapure water 0.195): 0.235 ng/mL; 8OHdG concentration, UV irradiation 60 minutes (0.1 μg/ml, Table 4): 0.299 ng/mL; 8OHdG concentration, UV irradiation 90 minutes (0.1 μg/ml, Table 4): 0.756 ng/mL; 8OHdG concentration, UV irradiation 120 minutes (0.1 μg/ml, Table 4): 1.073 ng/mL; 8OHdG concentration, 90 Minutes' standing (1 μg/ml, Table 4, ultrapure water 0.195): 0.185 ng/mL; 8OHdG concentration, UV irradiation 60 minutes (1 μg/ml, Table 4): 0.358 ng/mL; 8OHdG concentration, UV irradiation 90 minutes (1 μg/ml, Table 4): 0.708 ng/mL; 8OHdG concentration, UV irradiation 120 minutes (1 μg/ml, Table 4): 1.143 ng/mL; 8OHdG concentration, 90 Minutes' standing (10 μg/ml, Table 4, ultrapure water 0.195): 0.235 ng/mL; 8OHdG concentration, UV irradiation 60 minutes (10 μg/ml, Table 4): 0.333 ng/mL; 8OHdG concentration, UV irradiation 90 minutes (10 μg/ml, Table 4): 0.690 ng/mL; 8OHdG concentration, UV irradiation 120 minutes (10 μg/ml, Table 4): 1.279 ng/mL; 8OHdG concentration, 90 Minutes' standing (100 μg/ml, Table 4, ultrapure water 0.195): 0.280 ng/mL; 8OHdG concentration, UV irradiation 90 minutes (100 μg/ml, Table 4): 0.379 ng/mL; 8OHdG concentration, UV irradiation 120 minutes (100 μg/ml, Table 4): 0.648 ng/mL; 8OHdG concentration, 90 Minutes' standing (1 mg/ml, Table 4, ultrapure water 0.195): 0.300 ng/mL; 8OHdG concentration, UV irradiation 60 minutes (1 mg/ml, Table 4): 0.127 ng/mL; 8OHdG concentration, UV irradiation 90 minutes (1 mg/ml, Table 4): 0.309 ng/mL; 8OHdG concentration, UV irradiation 120 minutes (1 mg/ml, Table 4): 0.364 ng/mL
